Test results taken from patent publication US8735584B2 (Merck Patent GmbH, priority 2008, dated 2014).

Tests used:
Format in all cases: biochemical
ABL = target: T1, ABL (Homo sapiens, UniProt P00519); assay: Desktop Profiler kinase panel, ABL; settings: for inhibition at 10 µM: 10 micromolar concentration of the compound, read-out: Percent Inhibition ABL; for inhibition at 1 µM: 1 micromolar concentration of the compound
T1 construct: purchased Caliper Life Sciences
Protocol: (§1) The Aurora assays described here are performed on two Caliper Life Sciences systems: the LC3000 and the Desktop Profiler. These provide data on enzyme activity via measurement of the relative amounts of phosphorylated or unphosphorylated fluorescently labelled substrate peptide at the end of an enzymatic reaction. These different states of peptide are resolved by applying a potential difference across the sample. The presence of the charged phosphate group on the product (as opposed to the substrate) causes a different peptide mobility between the two peptides. This is visualized by excitation of the fluorescent label on the substrate and product peptides and represented as peaks within the analysis software.
(§2) The Desktop Profiler utilizes the same principle as the LC3000 for calculating percentage conversion of a substrate to product. Caliper Life Sciences provides proprietary flash frozen pre-made 384 well plates containing selected kinases. Each column in the 384 well plate contains a particular selected kinase. A second plate, the ‘substrate plate’ contains a mix of fluorescently labeled peptide substrate and ATP. These are arranged in columns so that transfer for substrate plate to enzyme plate provides the correct enzyme with the correct substrate/ATP concentration. Compounds are added to a thawed enzyme plate in the desired format, in single concentrations. Reactions are initiated by transfer of the substrate/ATP mix from the substrate plate. The enzyme plate is incubated for 90 mins at 25 C. The reaction is stopped by addition of 70 ul of Stop Buffer (100 mM HEPES pH 7.5, 0.015% Brij-35, 10 mM EDTA (Sigma, E7889)).
(§3) Reading of the plate in the Profiler is identical to the LC3000, and the ratio between substrate and product peaks provides the activity of the enzyme in that well. This is best represented by a plate heat map which colors each well by percent inhibition as compared to positive and negative controls (no inhibitors and no ATP respectively).
(§4) In the following Tables 3a-4-b, which show the results of the desktop profiler measurements, “+” means 50-70% inhibition, “++” means 70-90% inhibition, and “+++” means >90% inhibition. The enzymes tested for profiling were ABL, AKT1, AKT2, AurA, CHK1, CHK2, CK1d, Erk1, Erk2, FYN, GSK3b, INSR, LCK, LYN, MAPKAPK2, MET, MSK1, p38a, PKA, PKCz, PKD2, PRAK, RSK1 and SRC.

LYN = target: T2, LYN (Homo sapiens, UniProt P07948); assay: Desktop Profiler kinase panel, LYN; settings: for inhibition at 10 µM: 10 micromolar concentration of the compound, read-out: Percent Inhibition LYN; for inhibition at 1 µM: 1 micromolar concentration of the compound
T2 construct: purchased Caliper Life Sciences
T2 sequence (P07948 whole entry, species assumed): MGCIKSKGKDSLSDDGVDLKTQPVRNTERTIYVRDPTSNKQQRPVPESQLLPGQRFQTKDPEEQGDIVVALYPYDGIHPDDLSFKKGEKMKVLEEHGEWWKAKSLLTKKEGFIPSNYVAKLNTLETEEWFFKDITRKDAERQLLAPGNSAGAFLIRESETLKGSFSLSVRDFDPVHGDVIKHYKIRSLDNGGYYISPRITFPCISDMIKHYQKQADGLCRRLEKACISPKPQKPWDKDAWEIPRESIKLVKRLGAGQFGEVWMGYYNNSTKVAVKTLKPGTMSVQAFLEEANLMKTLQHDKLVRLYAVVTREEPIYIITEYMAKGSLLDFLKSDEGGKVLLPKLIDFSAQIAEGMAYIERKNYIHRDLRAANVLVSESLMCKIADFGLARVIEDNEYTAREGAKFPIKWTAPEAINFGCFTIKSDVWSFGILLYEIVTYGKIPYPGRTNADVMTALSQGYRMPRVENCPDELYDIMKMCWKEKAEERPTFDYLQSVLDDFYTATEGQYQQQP
Protocol: as §1, §2, §3, §4

AurA = target: T3, AurA (Homo sapiens, UniProt O14965); assay: Desktop Profiler kinase panel, AurA; settings: for inhibition at 10 µM: 10 micromolar concentration of the compound, read-out: Percent Inhibition AurA; for inhibition at 1 µM: 1 micromolar concentration of the compound
T3 construct: purchased Caliper Life Sciences
T3 sequence (O14965 1-403): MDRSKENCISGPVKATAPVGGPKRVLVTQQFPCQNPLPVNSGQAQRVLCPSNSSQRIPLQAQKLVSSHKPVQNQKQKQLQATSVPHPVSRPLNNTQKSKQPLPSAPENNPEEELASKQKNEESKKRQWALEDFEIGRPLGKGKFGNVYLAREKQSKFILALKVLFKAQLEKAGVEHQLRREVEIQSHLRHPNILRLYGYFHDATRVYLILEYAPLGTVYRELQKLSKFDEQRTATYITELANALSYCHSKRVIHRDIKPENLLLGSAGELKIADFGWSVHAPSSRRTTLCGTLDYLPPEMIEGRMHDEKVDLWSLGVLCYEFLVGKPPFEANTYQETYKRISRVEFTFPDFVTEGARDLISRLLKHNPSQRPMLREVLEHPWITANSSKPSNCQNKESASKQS
Protocol: as §1, §2, §3, §4

GST-Aurora A = target: T4, GST-Aurora A (Homo sapiens, UniProt O14965); assay: Aurora A IC50, Caliper LC3000 mobility shift assay; settings: LC3000 method; 15 uM ATP (the KM value); read-out: Aurora Kinase A Activity (IC50)
T4 construct: N-terminal GST fusion with full length Aurora A (1-403 amino acids); purchased Carna Biosciences 05-101
T4 sequence (O14965 1-403): T3 sequence (O14965 1-403)
Summary of the method: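 Readout: percent conversion of FITC-LRRASLG (1 uM) to phosphopeptide, resolved electrophoretically on a Caliper LC3000, fitted against inhibitor concentration for IC50. Reaction: N-terminal GST full-length Aurora A, ATP at its KM (15 uM), pH 7.5 HEPES with MgCl2/DTT, 25 C for 90 min.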

SRC = target: T5, SRC (Homo sapiens, UniProt P12931); assay: Desktop Profiler kinase panel, SRC; settings: for inhibition at 10 µM: 10 micromolar concentration of the compound, read-out: Percent Inhibition SRC; for inhibition at 1 µM: 1 micromolar concentration of the compound
T5 construct: purchased Caliper Life Sciences
T5 sequence (P12931 whole entry, species assumed): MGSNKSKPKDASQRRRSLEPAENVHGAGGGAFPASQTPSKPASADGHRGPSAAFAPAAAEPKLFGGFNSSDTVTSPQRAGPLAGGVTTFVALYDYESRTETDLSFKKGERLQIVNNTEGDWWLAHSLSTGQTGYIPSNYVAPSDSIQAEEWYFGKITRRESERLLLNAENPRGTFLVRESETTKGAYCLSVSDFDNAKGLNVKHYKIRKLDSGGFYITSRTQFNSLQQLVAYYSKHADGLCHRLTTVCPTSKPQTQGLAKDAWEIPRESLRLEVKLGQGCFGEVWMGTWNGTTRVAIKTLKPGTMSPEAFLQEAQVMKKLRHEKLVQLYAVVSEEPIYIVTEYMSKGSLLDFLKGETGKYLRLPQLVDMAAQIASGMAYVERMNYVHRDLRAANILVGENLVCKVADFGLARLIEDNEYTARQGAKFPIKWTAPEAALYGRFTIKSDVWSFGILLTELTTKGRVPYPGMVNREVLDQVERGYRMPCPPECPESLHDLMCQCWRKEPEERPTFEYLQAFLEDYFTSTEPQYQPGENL
Protocol: as §1, §2, §3, §4

CHK2 = target: T6, CHK2 (Homo sapiens, UniProt O96017); assay: Desktop Profiler kinase panel, CHK2; settings: for inhibition at 10 µM: 10 micromolar concentration of the compound, read-out: Percent Inhibition CHK2; for inhibition at 1 µM: 1 micromolar concentration of the compound
T6 construct: purchased Caliper Life Sciences
T6 sequence (O96017 whole entry, species assumed): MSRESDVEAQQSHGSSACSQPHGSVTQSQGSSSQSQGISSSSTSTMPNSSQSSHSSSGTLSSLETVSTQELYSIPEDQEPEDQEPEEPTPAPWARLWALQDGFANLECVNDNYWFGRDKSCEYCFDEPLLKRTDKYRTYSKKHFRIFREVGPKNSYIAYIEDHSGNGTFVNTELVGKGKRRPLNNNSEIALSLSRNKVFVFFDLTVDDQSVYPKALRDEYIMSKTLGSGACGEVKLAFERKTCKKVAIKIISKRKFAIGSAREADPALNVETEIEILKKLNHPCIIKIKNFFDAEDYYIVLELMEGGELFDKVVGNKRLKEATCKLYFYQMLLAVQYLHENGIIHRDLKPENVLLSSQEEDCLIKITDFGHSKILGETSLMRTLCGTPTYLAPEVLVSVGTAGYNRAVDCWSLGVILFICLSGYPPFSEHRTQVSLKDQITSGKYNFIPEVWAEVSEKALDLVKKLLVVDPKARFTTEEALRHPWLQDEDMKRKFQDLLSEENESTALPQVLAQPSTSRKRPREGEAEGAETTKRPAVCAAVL
Protocol: as §1, §2, §3, §4

FYN = target: T7, FYN (Homo sapiens, UniProt P06241); assay: Desktop Profiler kinase panel, FYN; settings: for inhibition at 10 µM: 10 micromolar concentration of the compound, read-out: Percent Inhibition FYN; for inhibition at 1 µM: 1 micromolar concentration of the compound
T7 construct: purchased Caliper Life Sciences
T7 sequence (P06241 whole entry, species assumed): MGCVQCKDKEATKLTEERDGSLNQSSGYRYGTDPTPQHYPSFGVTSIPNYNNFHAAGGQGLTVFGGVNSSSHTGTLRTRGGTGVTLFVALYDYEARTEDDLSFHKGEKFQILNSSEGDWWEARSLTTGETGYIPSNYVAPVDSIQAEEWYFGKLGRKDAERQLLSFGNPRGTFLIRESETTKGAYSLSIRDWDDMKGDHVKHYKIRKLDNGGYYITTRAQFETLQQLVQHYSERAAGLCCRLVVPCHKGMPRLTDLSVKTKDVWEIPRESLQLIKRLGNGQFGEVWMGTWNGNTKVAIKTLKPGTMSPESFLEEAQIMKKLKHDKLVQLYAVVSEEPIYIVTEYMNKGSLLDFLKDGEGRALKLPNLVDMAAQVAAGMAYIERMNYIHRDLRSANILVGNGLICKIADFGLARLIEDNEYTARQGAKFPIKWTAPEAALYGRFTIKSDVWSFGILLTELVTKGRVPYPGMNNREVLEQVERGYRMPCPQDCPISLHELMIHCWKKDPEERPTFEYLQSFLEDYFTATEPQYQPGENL
Protocol: as §1, §2, §3, §4

LCK = target: T8, LCK (Homo sapiens, UniProt P06239); assay: Desktop Profiler kinase panel, LCK; settings: for inhibition at 10 µM: 10 micromolar concentration of the compound, read-out: Percent Inhibition LCK; for inhibition at 1 µM: 1 micromolar concentration of the compound
T8 construct: purchased Caliper Life Sciences
T8 sequence (P06239 whole entry, species assumed): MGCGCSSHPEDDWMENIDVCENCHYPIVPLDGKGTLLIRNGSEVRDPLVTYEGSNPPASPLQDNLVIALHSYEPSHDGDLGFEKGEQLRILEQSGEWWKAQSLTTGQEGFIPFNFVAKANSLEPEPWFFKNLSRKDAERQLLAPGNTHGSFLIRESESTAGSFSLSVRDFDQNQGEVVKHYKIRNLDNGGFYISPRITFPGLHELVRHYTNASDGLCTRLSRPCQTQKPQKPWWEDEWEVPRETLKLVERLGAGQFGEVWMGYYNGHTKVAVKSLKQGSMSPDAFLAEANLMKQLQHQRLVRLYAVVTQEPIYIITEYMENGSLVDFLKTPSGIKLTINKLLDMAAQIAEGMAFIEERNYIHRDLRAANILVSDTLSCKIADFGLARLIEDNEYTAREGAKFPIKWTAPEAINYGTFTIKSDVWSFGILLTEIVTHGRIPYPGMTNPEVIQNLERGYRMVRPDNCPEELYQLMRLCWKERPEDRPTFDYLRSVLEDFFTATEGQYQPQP
Protocol: as §1, §2, §3, §4

PKA = target: T9, PKA (Homo sapiens, UniProt P17612); assay: Desktop Profiler kinase panel, PKA; settings: 10 micromolar concentration of the compound; read-out: Percent Inhibition PKA
T9 construct: purchased Caliper Life Sciences
Protocol: as §1, §2, §3, §4

GSK3b = target: T10, GSK3b (Homo sapiens, UniProt P49841); assay: Desktop Profiler kinase panel, GSK3b; settings: 10 micromolar concentration of the compound; read-out: Percent Inhibition GSK3b
T10 construct: purchased Caliper Life Sciences
T10 sequence (P49841 whole entry, species assumed): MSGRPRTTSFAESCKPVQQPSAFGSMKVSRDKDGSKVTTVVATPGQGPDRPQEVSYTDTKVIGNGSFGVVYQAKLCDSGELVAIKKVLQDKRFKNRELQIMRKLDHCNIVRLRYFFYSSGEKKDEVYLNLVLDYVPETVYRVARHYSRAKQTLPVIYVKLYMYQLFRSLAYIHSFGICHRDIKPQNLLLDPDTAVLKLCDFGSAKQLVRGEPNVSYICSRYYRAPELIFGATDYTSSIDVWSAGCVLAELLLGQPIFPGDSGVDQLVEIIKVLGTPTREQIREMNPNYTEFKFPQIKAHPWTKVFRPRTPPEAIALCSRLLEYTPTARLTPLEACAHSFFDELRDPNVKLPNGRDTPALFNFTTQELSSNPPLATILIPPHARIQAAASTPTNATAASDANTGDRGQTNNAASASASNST
Protocol: as §1, §2, §3, §4

CK1d = target: T11, CK1d (Homo sapiens, UniProt P48730); assay: Desktop Profiler kinase panel, CK1d; settings: 10 micromolar concentration of the compound; read-out: Percent Inhibition CK1d
T11 construct: purchased Caliper Life Sciences
T11 sequence (P48730 whole entry): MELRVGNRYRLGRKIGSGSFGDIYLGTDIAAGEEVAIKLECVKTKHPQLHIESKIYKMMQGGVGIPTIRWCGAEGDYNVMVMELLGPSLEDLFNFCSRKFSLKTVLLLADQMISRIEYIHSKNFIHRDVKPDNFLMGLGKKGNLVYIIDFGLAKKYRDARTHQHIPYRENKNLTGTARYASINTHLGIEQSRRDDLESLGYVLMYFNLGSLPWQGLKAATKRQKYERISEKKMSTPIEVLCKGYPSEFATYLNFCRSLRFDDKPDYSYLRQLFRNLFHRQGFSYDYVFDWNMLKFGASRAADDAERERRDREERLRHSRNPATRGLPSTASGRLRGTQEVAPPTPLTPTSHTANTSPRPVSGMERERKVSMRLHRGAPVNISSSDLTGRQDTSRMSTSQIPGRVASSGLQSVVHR
Protocol: as §1, §2, §3, §4

T1 sequence (P00519 whole entry, species assumed): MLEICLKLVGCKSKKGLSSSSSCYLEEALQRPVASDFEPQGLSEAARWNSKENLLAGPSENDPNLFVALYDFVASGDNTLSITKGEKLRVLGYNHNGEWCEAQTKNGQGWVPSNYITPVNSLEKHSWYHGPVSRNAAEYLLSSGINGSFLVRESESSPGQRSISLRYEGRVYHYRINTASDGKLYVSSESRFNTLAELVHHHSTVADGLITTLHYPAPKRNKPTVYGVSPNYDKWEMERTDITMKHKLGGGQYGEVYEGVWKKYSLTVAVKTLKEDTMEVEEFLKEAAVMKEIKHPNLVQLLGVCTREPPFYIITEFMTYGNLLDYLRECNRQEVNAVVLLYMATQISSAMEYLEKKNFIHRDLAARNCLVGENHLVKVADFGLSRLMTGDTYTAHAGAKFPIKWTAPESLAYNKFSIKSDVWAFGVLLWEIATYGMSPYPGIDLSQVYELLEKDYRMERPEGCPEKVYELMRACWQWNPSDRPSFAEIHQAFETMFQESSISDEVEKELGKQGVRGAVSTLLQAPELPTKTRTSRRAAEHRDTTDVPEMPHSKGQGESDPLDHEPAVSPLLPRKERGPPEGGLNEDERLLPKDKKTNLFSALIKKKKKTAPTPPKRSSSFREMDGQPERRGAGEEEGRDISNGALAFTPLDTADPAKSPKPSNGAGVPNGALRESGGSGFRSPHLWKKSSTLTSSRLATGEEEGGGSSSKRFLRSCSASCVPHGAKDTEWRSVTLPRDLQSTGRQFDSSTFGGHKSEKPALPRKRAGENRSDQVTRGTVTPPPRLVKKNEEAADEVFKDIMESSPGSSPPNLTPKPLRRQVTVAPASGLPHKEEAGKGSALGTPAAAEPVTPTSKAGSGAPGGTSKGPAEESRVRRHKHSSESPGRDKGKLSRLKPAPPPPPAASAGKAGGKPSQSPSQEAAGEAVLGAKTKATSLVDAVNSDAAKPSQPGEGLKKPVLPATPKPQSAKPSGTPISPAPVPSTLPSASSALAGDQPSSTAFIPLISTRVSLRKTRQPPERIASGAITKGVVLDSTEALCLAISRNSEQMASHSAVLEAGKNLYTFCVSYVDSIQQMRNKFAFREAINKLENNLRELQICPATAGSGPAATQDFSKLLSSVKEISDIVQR

Clc1nc2nccc(Nc3ccccc3)c2c2ccccc12 [Example 139, (6-Chloro-benzo[c][1,8]naphthyridin-1-yl)-phenyl-amine]
inhibition at 10 µM (ABL): > 90% | inhibition at 10 µM (LYN): > 90% | inhibition at 10 µM (AurA): 70 to 90% | IC50 (GST-Aurora A): > 100 nM | inhibition at 10 µM (SRC): > 90% | inhibition at 10 µM (CHK2): 50 to 70% | inhibition at 10 µM (FYN): > 90% | inhibition at 10 µM (LCK): 70 to 90%

COc1ccc(Nc2ccnc3[nH]c(=O)c4ccccc4c23)cc1 [Example 113, 1-(4-Methoxy-phenylamino)-5H-benzo[c][1,8]naphthyridin-6-one]
inhibition at 1 µM (ABL): 50 to 70% | inhibition at 10 µM (ABL): 70 to 90% | inhibition at 1 µM (LYN): 70 to 90% | inhibition at 10 µM (LYN): > 90% | inhibition at 1 µM (AurA): 50 to 70% | inhibition at 10 µM (AurA): 70 to 90% | inhibition at 1 µM (SRC): 70 to 90% | inhibition at 10 µM (SRC): 70 to 90% | inhibition at 1 µM (CHK2): 50 to 70% | inhibition at 10 µM (CHK2): 70 to 90% | inhibition at 1 µM (FYN): 70 to 90% | inhibition at 1 µM (LCK): 50 to 70% | inhibition at 10 µM (LCK): 70 to 90% | inhibition at 10 µM (PKA): 50 to 70%

Clc1ccc2c(Nc3cccc(Br)c3)nc3ncccc3c2c1 [Example 59, (3-Bromo-phenyl)-(9-chloro-benzo[c][1,8]naphthyridin-6-yl)-amine]
inhibition at 10 µM (GSK3b): 50 to 70% | inhibition at 10 µM (ABL): 50 to 70%

O=c1[nH]c2nccc(Nc3ccccc3)c2c2ccccc12 [Example 95, 1-Phenylamino-5H-benzo[c][1,8]naphthyridin-6-one]
inhibition at 1 µM (ABL): > 90% | inhibition at 10 µM (ABL): > 90% | inhibition at 10 µM (LYN): > 90% | inhibition at 1 µM (AurA): 50 to 70% | inhibition at 10 µM (AurA): 70 to 90% | inhibition at 1 µM (SRC): > 90% | inhibition at 10 µM (SRC): > 90% | inhibition at 10 µM (CHK2): 50 to 70% | inhibition at 1 µM (FYN): > 90% | inhibition at 10 µM (FYN): > 90% | inhibition at 1 µM (LCK): 50 to 70% | inhibition at 10 µM (LCK): 70 to 90%

COc1ccccc1Nc1ccnc2[nH]c(=O)c3ccccc3c12 [Example 114, 1-(2-Methoxy-phenylamino)-5H-benzo[c][1,8]naphthyridin-6-one]
inhibition at 1 µM (ABL): 70 to 90% | inhibition at 10 µM (ABL): > 90% | inhibition at 1 µM (LYN): 70 to 90% | inhibition at 10 µM (LYN): > 90% | inhibition at 1 µM (AurA): 70 to 90% | inhibition at 10 µM (AurA): > 90% | IC50 (GST-Aurora A): > 100 nM | inhibition at 1 µM (SRC): 70 to 90% | inhibition at 10 µM (SRC): > 90% | inhibition at 10 µM (CHK2): 50 to 70% | inhibition at 1 µM (FYN): 70 to 90% | inhibition at 10 µM (FYN): 50 to 70% | inhibition at 10 µM (LCK): 50 to 70%

O=c1[nH]c2nccc(Nc3ccc(Oc4ccccc4)cc3)c2c2ccccc12 [Example 121, 1-(4-Phenoxy-phenylamino)-5H-benzo[c][1,8]naphthyridin-6-one]
inhibition at 10 µM (LYN): 70 to 90% | inhibition at 10 µM (AurA): 50 to 70% | inhibition at 10 µM (SRC): 70 to 90% | inhibition at 10 µM (FYN): 70 to 90% | inhibition at 10 µM (LCK): 70 to 90%

O=c1[nH]c2nccc(Cl)c2c2ccccc12 [Example 83, 1-Chloro-5H-benzo[c][1,8]naphthyridin-6-one]
inhibition at 10 µM (PKA): 50 to 70% | inhibition at 10 µM (CK1d): 50 to 70%

O=C(Nc1ccc(Nc2ccnc3[nH]c(=O)c4ccccc4c23)cc1)c1ccccc1 [Example 120, N-[4-(6-Oxo-5,6-dihydro-benzo[c][1,8]naphthyridin-1-ylamino)-phenyl]-benzamide]
inhibition at 1 µM (LYN): 50 to 70% | inhibition at 10 µM (LYN): 70 to 90% | inhibition at 1 µM (AurA): > 90% | inhibition at 10 µM (AurA): > 90% | IC50 (GST-Aurora A): < 11 nM | inhibition at 10 µM (SRC): 50 to 70% | inhibition at 1 µM (CHK2): > 90% | inhibition at 10 µM (CHK2): > 90% | inhibition at 10 µM (FYN): 50 to 70% | inhibition at 10 µM (CK1d): 50 to 70%

O=c1[nH]c2ncc(NCc3ccccc3)cc2c2ccccc12 [Example 13, 2-Benzylamino-5H-benzo[c][1,8]naphthyridin-6-one]
inhibition at 10 µM (ABL): 50 to 70% | inhibition at 10 µM (LYN): 70 to 90% | inhibition at 10 µM (SRC): 70 to 90% | inhibition at 10 µM (FYN): > 90% | inhibition at 10 µM (LCK): 50 to 70%

COc1ccc(CCNc2ccc3c(=O)[nH]c4ncccc4c3c2)cc1 [Example 36, 9-[2-(4-Methoxy-phenyl)-ethylamino]-5H-benzo[c][1,8]naphthyridin-6-one]
inhibition at 1 µM (AurA): 50 to 70% | inhibition at 10 µM (AurA): > 90% | IC50 (GST-Aurora A): > 100 nM | inhibition at 10 µM (CHK2): 70 to 90% | inhibition at 10 µM (FYN): 50 to 70%
